Marks after values point to notes of the source that are not given here.
Experiments:
[1] = test system: mouse eczema model; assay: Mouse eczema model: ear thickness; type: in vivo, C57BL/6 mice; settings: after modeling, 14th day; 0.1% cream for external use twice a day, 10 days (positive: aloxone)
Source text: Preparation method of CLY cream: the matrix components included methyl silicone oil (15%), stearic acid (6%), white vaseline (5%), liquid paraffin (5%), octadecanol (5%), glycerin (20%), alkyl aryl polyglycol ether (1%), fatty alcohol polyoxyethylene ether (1%), Tween-807 (1%), ethyl paraben (0.1%), distilled water (about 31-55%), and it was mixed with an appropriate amount of CLY series compound liquid to form a mixed emulsion. The cream matrix used in this embodiment refers to the matrix components after the active ingredients were removed from the cream.
(§1) SPF grade female C57BL/6 mice were purchased at the age of 8 weeks (0.02 kg), 6 in each group, and randomly divided into the blank control group, model group, positive drug group, CLY-1 treatment group (0.1% CLY-1 cream for external use), CLY-2 treatment group (0.1% CLY-2 cream for external use), CLY-3 treatment group (0.1% CLY-3 cream for external use), CLY-4 treatment group (0.1% CLY-4 cream for external use), CLY-8 treatment group (0.1% CLY-8 cream for external use), CLY-11 treatment group (0.1% CLY-11 cream for external use) CLY-19 treatment group (0.1% CLY-19 cream for external use), CLY-36 treatment group (0.1% CLY-36 cream for external use) and CLY-39 treatment group (0.1% CLY-39 cream for external use).
(§2) Model establishment: the normal control group mice were smeared with 75% ethanol 14.3 ul on both ears, while the model group, positive drug group and treatment group were smeared with 1 nmol/L carpotriol liniment 14.3 ul on both ears at a regular time every day, and then smeared with 20 g/L OVA 25 ul after air drying, once a day, for 12 days to make a model.
(§3) From 4 days after the start of modeling, applied the cream matrix on the ear skin of mice in the blank control group and the model group, applied aloxone on the ear skin of mice in the positive drug group, and applied the treatment cream on the ear skin of mice in each treatment group respectively, twice a day in the morning and evening, for 10 consecutive days, took photos every day, and recorded scores.
(§4) The thickness of mouse auricle was measured and recorded with ear thickness measuring instrument before and on the 14th day respectively. After the measurement on the 14th day, the mice were sacrificed. Blood was taken and serum was separated.

[2] = test system: serum IL-4; assay: Mouse eczema model: serum IL-4 (ELISA); type: in vivo, C57BL/6 mice; settings: after modeling, 0.1% cream for external use twice a day, 10 days (positive: aloxone)
Source text: as §1, §2, §3, §4
The enzyme-labeled plate was coated with rabbit anti-mouse interleukin (IL)-4 antibody, stayed at 4° C. overnight, and the reaction was stopped according to the instructions of the ELISA kit to detect the level of serum IL-4. ELISA kits were all purchased from Raybiotech, USA.

[3] = test system: rat hair loss model; assay: Rat hair loss (androgenic alopecia) model: hair length; type: in vivo, Wistar rats; settings: for 15-day hair length / 30-day hair length / 45-day hair length / 60-day hair length: rat AGA model; for adverse reactions: rat hair loss model, external use and system application, 60 days
Source text: (1) Compound CLY-1, CLY-2, CLY-3, CLY-4, CLY-5, CLY-8, CLY-11, CLY-19, CLY-36, CLY-39 tincture preparation method: 75% ethanol was mixed with appropriate amount of above compounds to prepare a tincture of different concentrations.
(2) Positive treatment drug: 5% minoxidil tincture (trade name: Mandi, Zhejiang Wanma Pharmaceutical Co., Ltd.).
Wistar rats were, according to weights, randomly divided into the negative control group (75% ethanol for external use), model group (75% ethanol for external use), positive control group (external 5% minoxidil tincture), CLY-1 external treatment group (external 5% CLY-1 tincture), CLY-2 external treatment group (external 5% CLY-2 tincture), CLY-3 external treatment group (external 5% CLY-3 tincture), CLY-4 external treatment group (external 5% CLY-4 tincture), and CLY-5 external treatment group (external 5% CLY-5 tincture) according to their body weight CLY-8 external treatment group (external 5% CLY-8 tincture), CLY-11 external treatment group (external 5% CLY-11 tincture), CLY-19 external treatment group (external 5% CLY-19 tincture), CLY-36 external treatment group (external 5% CLY-36 tincture), CLY-39 external treatment group (external 5% CLY-39 tincture), CLY-1 intravenous injection group (2 mg/kg·d), CLY-3 intravenous injection group (2 mg/kg·d), CLY-4 intravenous injection group (2 mg/kg·d) CLY-5 intravenous injection group (2 mg/kg·d), CLY-8 intravenous injection group (2 mg/kg·d), CLY-11 intravenous injection group (2 mg/kg·d), CLY-19 intravenous injection group (2 mg/kg·d), CLY-36 intravenous injection group (2 mg/kg·d), and CLY-39 intravenous injection group (2 mg/kg·d), with 10 rats in each group. Before the experiment, an area of 4 cm×5 cm was selected on each rat on the back of the neck to remove hair as the observation area. In addition to the negative control group, rats were subcutaneously injected with testosterone propionate injection [5 ml/(kg·d)] once a day for 60 days to establish the androgenic alopecia (AGA) model. […] At the same time, the drug was applied to the observation area on the back of the rats in the corresponding drug group at the rate of 2 mL/(one time), twice a day, at an interval of 8 hours; Intravenous administration once a day. The negative control group and the model control group were smeared with 75% ethanol solution, 2 mL/(one rat per time), twice a day, for 60 days.
Took 10 hairs from the observation area on the back of each rat every 15 days after administration, and measured the hair length with a vernier caliper. After 60 days of administration, the skin of the experimental observation area was taken for routine tissue dehydration, paraffin embedding, HE staining, and light microscopy to observe the histopathological changes of the rat skin hair follicles and sebaceous glands. Semi-quantitative analysis was performed for each group. The grading criteria are as follows: the normal structure of dermal tissue cells, subcutaneous hair follicles, and sebaceous glands is marked as […]: no hyperplasia of dermal tissue is found, the lesions of hair follicles and sebaceous glands are limited, and no inflammation is found under the skin is marked as “+”: no obvious hyperplasia of dermal tissue is found, and the follicles are obviously cystic. No obvious hyperplasia of sebaceous glands is found, and no inflammation is found under the skin is marked as “+”: the dermal tissue has segmental hyperplasia, which is not obvious, A small number of hair follicles have cystic changes, and the sebaceous glands have mild hyperplasia and hypertrophy. There is no obvious inflammation under the skin, which is marked as “++”: the dermal tissue cells of the skin have different degrees of segmental hyperplasia, and some hair follicles have cystic changes, showing uneven size of hair follicles, and no cells around. The sebaceous glands have hyperplasia, and the nuclei in the proliferative glands are few. […]

[4] = external 5% tincture twice a day
[5] = intravenous injection 2 mg/kg·d

Structure (SMILES)	Ear thickness [1] [mm]	IL-4 level in peripheral blood [2] [pg/mL]	15-day hair length [3, 4]	30-day hair length [3, 4]	45-day hair length [3, 4]	60-day hair length [3, 4]	15-day hair length [3, 5]	30-day hair length [3, 5]	45-day hair length [3, 5]	60-day hair length [3, 5]	adverse reactions [3]
O=C(c1ccc(-n2nnc3cccnc32)cc1)N(c1ncccc1Cl)C1CCCC(O)C1 (stereo not shown) [CLY-4]	0.323	7.51	7.2* mm	8.3* mm	12.26* mm	16.1* mm	7.1* mm	8.6* mm	13.5* mm	16.3* mm	no obvious adverse reactions
CCN1CCC[C@@H](N(C(=O)c2ccc(-n3nnc4cccnc43)cc2)c2ncccc2Cl)C1 [CLY-2, (R)-4-(3H-[1,2,3]triazolo[4,5-b]pyridin-3-yl)-N-(3-chloropyridin-2-yl)-N-(1-ethylpiperidin-3-yl)benzamide]	0.246	5.58	9.1* mm	10.1* mm	15.3* mm	18.9* mm	9.2* mm	10.3* mm	15.6* mm	19.1* mm	no obvious adverse reactions
CN1CCC[C@@H](N(C(=O)c2ccc(-n3nnc4cccnc43)cc2)c2ncccc2Cl)C1 [CLY-1, (R)-4-(3H-[1,2,3]triazolo[4,5-b]pyridin-3-yl)-N-(3-chloropyridin-2-yl)-N-(1-methylpiperidin-3-yl)benzamide]	0.251	6.76	8.3* mm	9.3* mm	14.2* mm	17.6* mm	8.7* mm	9.6* mm	14.6* mm	17.9* mm	no obvious adverse reactions
Nc1cc(N2CCCCC2)nc(N)[n+]1[O-] [Positive control group, minoxidil, reference compound]	–	–	7.6* mm	8.5* mm	13.1* mm	16.2* mm	–	–	–	–	–
O=C(c1ccc(-c2ccccc2Cl)cc1)N(c1ncccc1Cl)[C@@H]1CCCNC1 [CLY-36]	0.248	5.86	8.1* mm	8.7* mm	13.81* mm	17.1* mm	8.6* mm	9.2* mm	14.2* mm	17.3* mm	no obvious adverse reactions
CNC1CCCC(N(C(=O)c2ccc(-n3nnc4cccnc43)cc2)c2ncccc2Cl)C1 (stereo not shown) [CLY-3]	0.297	7.32	7.5* mm	8.6* mm	12.45* mm	16.3* mm	7.3* mm	8.9* mm	13.9* mm	16.8* mm	no obvious adverse reactions
Nc1ccccc1-c1ccc(C(=O)N(c2ncccc2Cl)[C@@H]2CCCNC2)cc1 [CLY-39]	0.246	5.75	9.1* mm	9.3* mm	14.8* mm	18.2* mm	9.3* mm	9.9* mm	14.9* mm	18.1* mm	no obvious adverse reactions
COC1CCCC(N(C(=O)c2ccc(-n3nnc4cccnc43)cc2)c2ncccc2Cl)C1 (stereo not shown) [CLY-5]	–	–	9.2* mm	10.2* mm	15.5* mm	18.9* mm	7.8* mm	9.3* mm	13.7* mm	16.4* mm	no obvious adverse reactions
O=C(c1ccc(-c2ccccc2-c2nnn[nH]2)cc1)N(c1ncccc1Cl)[C@@H]1CCCNC1 [CLY-19]	0.253	5.72	8.5* mm	9.4* mm	14.02* mm	17.6* mm	8.8* mm	9.7* mm	14.9* mm	17.8* mm	no obvious adverse reactions
O=C(c1ccc(-n2nnc3cccnc32)cc1)N(c1ncccc1Cl)[C@@H]1CCNC1 [CLY-8, (R)-4-(3H-[1,2,3]triazolo[4,5-b]pyridin-3-yl)-N-(3-chloropyridin-2-yl)-N-(pyrrolidin-3-yl)benzamide]	0.245	5.53	9.3* mm	10.3* mm	15.7* mm	19.2* mm	7.3* mm	9.5* mm	13.8* mm	17.8* mm	no obvious adverse reactions
NC1CCCC(N(C(=O)c2ccc(-n3nnc4cccnc43)cc2)c2ncccc2Cl)C1 (stereo not shown) [CLY-11]	0.278	6.45	8.2* mm	9.1* mm	13.89* mm	17.4* mm	8.6* mm	9.3* mm	14.7* mm	17.6* mm	no obvious adverse reactions

Reference: patent US20240300945A1, “CLY SERIES COMPOUND, PREPARATION METHOD THEREFOR AND USE THEREOF IN PREPARATION OF DRUGS” (NANJING WELLBEST PHARMACEUTICAL CO., LTD, priority 2021, published 2024)
